This is an account of results in US11498928B2, “Macrocyclic spiroethers as Mcl-1 inhibitors” (ASCENTAGE PHARMA (SUZHOU) CO., LTD., priority 2019, dated 2022).

In assay [1] the test system is NCI-H929 cells. Briefly: Cell viability assay (NCI-H929 cells), CCK-8. The assay is classed as cell-based. The note with it: Homo sapiens, NCI-H929, 24 h, 5% FBS. In outline: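 NCI-H929 cells from ATCC were seeded at 20000 cells/well in 95 μL of culture medium in 96-well plates and grown for 4 hrs. Compounds, serially diluted in DMSO and further diluted in medium, were added as 5 μL, and cells were incubated for 24 hrs at 37° C. with 5% CO2. Viability was measured with CCK-8.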

Assay [2] concerns the target T1, Mcl-1 protein (residues 171-323) (Homo sapiens, UniProt Q07820).
T1 construct: Tag-free Mcl-1 protein (residues 171-323) was used in the FP assay
Kind of assay: Inhibition of Mcl-1 by fluorescence polarization (FP) competitive binding assay with FAM-Bid tracer. The conditions noted are these: 2 nM FAM-Bid, 20 nM Mcl-1, 30 min. In outline: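 Tag-free Mcl-1 (20 nM) with 2 nM FAM-Bid peptide in PBS, 0.01% BGG, 0.01% Triton X-100, 5% DMSO, 30 min at room temperature. FP read at Ex 485/Em 528 nm. IC50 from 10-point curves normalised to DMSO and no-protein controls.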
Background: Fluorescence polarisation rises when a labelled molecule tumbles more slowly, as on binding a larger partner.

In assay [3] the test system is OPM-2 cells. Briefly: Cell viability assay (OPM-2 cells), CCK-8. The assay is classed as cell-based. The note with it: Homo sapiens, OPM-2, 24 h, 5% FBS. The method, boiled down: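 OPM-2 myeloma cells (20000/well) exposed to serially diluted compound for 24 h at 37 °C, 5% CO2, then incubated 4 h with CCK-8 and read at 450 nm. Readings normalized to vehicle; IC50 from nonlinear regression.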

T1 sequence (Q07820 171-323): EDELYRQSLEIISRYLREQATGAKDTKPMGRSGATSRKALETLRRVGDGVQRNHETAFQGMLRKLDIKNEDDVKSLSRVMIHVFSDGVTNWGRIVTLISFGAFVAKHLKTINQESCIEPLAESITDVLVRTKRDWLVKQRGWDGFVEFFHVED

As a reminder, the IC50 is the concentration needed to halve the response being measured. Turning to `C[C@@H]1[C@@H](C)S(=O)(=O)NC(=O)c2ccc3c(c2)N(C[C@@H]2CC[C@H]2[C@@H](OCC(=O)N2CCN(C)CC2)C2=C[C@H]1C2)C[C@@]1(CCCc2c1ccc(Cl)c2F)CO3` [compound 70, (1S,11′R,12′S,13′R,16′R,16a′R,18a′R,E)-6-chloro-5-fluoro-11′,12′-dimethyl-16′-(2-(4-methylpiperazin-1-yl)-2-oxoethoxy)-3,4,12′,13′,16′,16a′,17′,18′,18a′,19′-decahydro-1′H,2H,3′H, 11′H-spiro[naphthalene-1,2′-[5,7]etheno[13,15]methanocyclobuta[i][1,4]oxazepino[3,4-f][1]thia[2,7]diazacyclohexadecin]-8′(9′H)-one 10′,10′-dioxide], the results for the IC50 in assay [1], in assay [2] and in assay [3] were 81 nM, 14 nM and 35 nM, respectively.

Turning to `C[C@@H]1[C@@H](C)S(=O)(=O)NC(=O)c2ccc3c(c2)N(C[C@@H]2CC[C@H]2[C@@H](OCC2CCN(C)CC2)C2=C[C@H]1C2)C[C@@]1(CCCc2c1ccc(Cl)c2F)CO3` [compound 71], the IC50 in assay [1] turned out to be 6 nM; in assay [2], 13 nM; in assay [3] it was 81 nM.

For `CCOC(=O)CO[C@H]1C2=C[C@@H](C2)[C@H](C)[C@@H](C)S(=O)(=O)NC(=O)c2ccc3c(c2)N(C[C@@H]2CC[C@H]21)C[C@@]1(CCCc2c1ccc(Cl)c2F)CO3` [compound 72, ethyl 2-(((1S,11′R,12′S,13′R,16′R,16a′R,18a′R,E)-6-chloro-5-fluoro-11′,12′-dimethyl-10′,10′-dioxido-8′-oxo-3,4,8′,9′,12′,13′,16′,16a′,17′,18′,18a′,19′-dodecahydro-1′H,2H,3′H,11′H-spiro[naphthalene-1,2′-[5,7]etheno[13,15]methanocyclobuta[i][1,4]oxazepino[3,4-f][1]thia[2,7]diazacyclohexadecin]-16′-yl)oxy)acetate], the IC50 in assay [1] is 70 nM; in assay [2] it was 14 nM; in assay [3] it was 89 nM.

As for `CC(C)OC(=O)CO[C@H]1C2=C[C@@H](C2)[C@H](C)[C@@H](C)S(=O)(=O)NC(=O)c2ccc3c(c2)N(C[C@@H]2CC[C@H]21)C[C@@]1(CCCc2c1ccc(Cl)c2F)CO3` [compound 73, isopropyl 2-(((1S,11′R,12′S,13′R,16′R,16a′R,18a′R,E)-6-chloro-5-fluoro-11′,12′-dimethyl-10′,10′-dioxido-8′-oxo-3,4,8′,9′,12′,13′,16′,16a′,17′,18′,18a′,19′-dodecahydro-1′H,2H,3′H,11′H-spiro[naphthalene-1,2′-[5,7]etheno[13,15]methanocyclobuta[i][1,4]oxazepino[3,4-f][1]thia[2,7]diazacyclohexadecin]-16′-yl)oxy)acetate], the figures for the IC50 in assay [1], in assay [2] and in assay [3] were 150 nM, 19 nM and 67 nM, respectively.

As for `C[C@@H]1[C@@H](C)S(=O)(=O)NC(=O)c2ccc3c(c2)N(C[C@@H]2CC[C@H]2[C@@H](OCC(=O)O)C2=C[C@H]1C2)C[C@@]1(CCCc2c1ccc(Cl)c2F)CO3` [compound 74, 2-(((1S,11′R,12′S,13′R,16′R,16a′R,18a′R,E)-6-chloro-5-fluoro-11′,12′-dimethyl-10′,10′-dioxido-8′-oxo-3,4,8′,9′,12′,13′,16′,16a′,17′,18′,18a′,19′-dodecahydro-1′H,2H,3′H,11′H-spiro[naphthalene-1,2′-[5,7]etheno[13,15]methanocyclobuta[i][1,4]oxazepino[3,4-f][1]thia[2,7]diazacyclohexadecin]-16′-yl)oxy)acetic acid], the half-maximal inhibitory concentration (IC50) was 450 nM in assay [1], 20 nM in assay [2] and 384 nM in assay [3].

Regarding `COC1CCN(CCO[C@H]2C3=C[C@@H](C3)[C@H](C)[C@@H](C)S(=O)(=O)NC(=O)c3ccc4c(c3)N(C[C@@H]3CC[C@H]32)C[C@@]2(CCCc3c2ccc(Cl)c3F)CO4)CC1` [compound 75, (1S,11′R,12′S,13′R,16′R,16a′R,18a′R,E)-6-chloro-5-fluoro-16′-(2-(4-methoxypiperidin-1-yl)ethoxy)-11′,12′-dimethyl-3,4,12′,13′,16′,16a′,17′,18′,18a′,19′-decahydro-1′H,2H,3′H,11′H-spiro[naphthalene-1,2′-[5,7]etheno[13,15]methanocyclobuta[i][1,4]oxazepino[3,4-f][1]thia[2,7]diazacyclohexadecin]-8′(9′H)-one 10′,10′-dioxide], the half-maximal inhibitory concentration (IC50) was found to be 51 nM in assay [1], 36 nM in assay [2] and 41 nM in assay [3].

Take `C[C@@H]1[C@@H](C)S(=O)(=O)NC(=O)c2ccc3c(c2)N(C[C@@H]2CC[C@H]2[C@@H](OCCN2CCN(S(C)(=O)=O)CC2)C2=C[C@H]1C2)C[C@@]1(CCCc2c1ccc(Cl)c2F)CO3` [compound 76, (1S,11′R,12′5,13′R,16′R,16a′R,18a′R,E)-6-chloro-5-fluoro-11′,12′-dimethyl-16′-(2-(4-(methylsulfonyl)piperazin-1-yl)ethoxy)-3,4,12′,13′,16′,16a′,17′,18′,18a′,19′-decahydro-1′H,2H,3′H,11′H-spiro[naphthalene-1,2′-[5,7]etheno[13,15]methanocyclobuta[i][1,4]oxazepino[3,4-f][1]thia[2,7]diazacyclohexadecin]-8′(9′H)-one 10′,10′-dioxide]: the values for the half-maximal inhibitory concentration (IC50) in assay [1], in assay [2] and in assay [3] were 37 nM, 21 nM and 206 nM, respectively.

For `C[C@@H]1[C@@H](C)S(=O)(=O)NC(=O)c2ccc3c(c2)N(C[C@@H]2CC[C@H]2[C@@H](OCCN(C)C)C2=C[C@H]1C2)C[C@@]1(CCCc2c1ccc(Cl)c2F)CO3` [compound 77, (1S,11′R,12′S,13′R,16′R,16a′R,18a′R,E)-6-chloro-16′-(2-(dimethylamino)ethoxy)-5-fluoro-11′,12′-dimethyl-3,4,12′,13′,16′,16a′,17′,18′,18a′,19′-decahydro-1′H,2H,3′H,1 PH-spiro[naphthalene-1,2′-[5,7]etheno[13,15]methanocyclobuta[i][1,4]oxazepino[3,4-f][1]thia[2,7]diazacyclohexadecin]-8′(9′H)-one 10′,10′-dioxide], the IC50 in assay [1] was determined as 5.3 nM; in assay [2], 8.5 nM; in assay [3] it was 68 nM.

On to `CNCCO[C@H]1C2=C[C@@H](C2)[C@H](C)[C@@H](C)S(=O)(=O)NC(=O)c2ccc3c(c2)N(C[C@@H]2CC[C@H]21)C[C@@]1(CCCc2c1ccc(Cl)c2F)CO3` [compound 78, (1S,11′R,12′S,13′R,16′R,16a′R,18a′R,E)-6-chloro-5-fluoro-11′,12′-dimethyl-16′-(2-(methylamino)ethoxy)-3,4,12′,13′,16′,16a′,17′,18′,18a′,19′-decahydro-1′H,2H,3′H, 11′H-spiro[naphthalene-1,2′-[5,7]etheno[13,15]methanocyclobuta[i][1,4]oxazepino[3,4-f][1]thia[2,7]diazacyclohexadecin]-8′(9′H)-one 10′,10′-dioxide], for which the half-maximal inhibitory concentration (IC50) in assay [1] came to 66 nM; in assay [2], 16 nM; in assay [3] it was 184 nM.

Regarding `C[C@@H]1[C@@H](C)S(=O)(=O)NC(=O)c2ccc3c(c2)N(C[C@@H]2CC[C@H]2[C@@H](OCCN(C)S(C)(=O)=O)C2=C[C@H]1C2)C[C@@]1(CCCc2c1ccc(Cl)c2F)CO3` [compound 79, N-(2-(((1S,11′R,12′S,13′R,16′R,16a′R,18a′R,E)-6-chloro-5-fluoro-11′,12′-dimethyl-10′,10′-dioxido-8′-oxo-3,4,8′,9′,12′,13′,16′,16a′,17′,18′,18a′,19′-dodecahydro-1′H,2H,3′H, 11′H-spiro[naphthalene-1,2′-[5,7]etheno[13,15]methanocyclobuta[i][1,4]oxazepino[3,4-f][1]thia[2,7]diazacyclohexadecin]-16′-yl)oxy)ethyl)-N-methylmethanesulfonamide], the IC50 in assay [1] came to 58 nM; in assay [2] it was 15 nM; in assay [3] it was 53 nM.

Take `CC(=O)N(C)CCO[C@H]1C2=C[C@@H](C2)[C@H](C)[C@@H](C)S(=O)(=O)NC(=O)c2ccc3c(c2)N(C[C@@H]2CC[C@H]21)C[C@@]1(CCCc2c1ccc(Cl)c2F)CO3` [compound 80, N-(2-(((1S,11′R,12′S,13′R,16′R,16a′R,18a′R,E)-6-chloro-5-fluoro-11′,12′-dimethyl-10′,10′-dioxido-8′-oxo-3,4,8′,9′,12′,13′,16′,16a′,17′,18′,18a′,19′-dodecahydro-1′H,2H,3′H, 11′H-spiro[naphthalene-1,2′-[5,7]etheno[13,15]methanocyclobuta[i][1,4]oxazepino[3,4-f][1]thia[2,7]diazacyclohexadecin]-16′-yl)oxy)ethyl)-N-methylacetamide]: the IC50 in assay [1] was 62 nM; in assay [2], 13 nM; in assay [3], 158 nM.

With `C[C@@H]1[C@@H](C)S(=O)(=O)NC(=O)c2ccc3c(c2)N(C[C@@H]2CC[C@H]2[C@@H](OCCN2CC4(CN(C)C4)C2)C2=C[C@H]1C2)C[C@@]1(CCCc2c1ccc(Cl)c2F)CO3` [compound 81, (1S,11′R,12′S,13′R,16′R,16a′R,18a′R,E)-6-chloro-5-fluoro-11′,12′-dimethyl-16′-(2-(6-methyl-2,6-diazaspiro[3.3]heptan-2-yl)ethoxy)-3,4,12′,13′,16′,16a′,17′,18′,18a′,19′-decahydro-1′H,2H,3′H, 11′H-spiro[naphthalene-1,2′-[5,7]etheno[13,15]methanocyclobuta[i][1,4]oxazepino[3,4-f][1]thia[2,7]diazacyclohexadecin]-8′(9′H)-one 10′,10′-dioxide], the figures for the IC50 in assay [1], in assay [2] and in assay [3] were 360 nM, 17 nM and 667 nM, respectively.
